From patent US20250277012A1 (Protagonist Therapeutics, Inc., priority 2021, published 2025)
Starred links: 1 amine or outer side, 2 acyl side, 3 side chain; linkers in the order of their positions; H or OH if unused. Positions of bridges follow the written chain, without caps; N, C: chain ends. Non-standard residues stand in square brackets, D forms with d. Residues, ends and D or L forms follow the SMILES beside them. Groups on a side chain read outwards from the residue. *: point of attachment. Glutaryl(2-isohexyl,5-OMe) = COC(=O)CCC(CCCC(C)C)C(=O)*; Trp(6-OMe) = COc1ccc2c(C[C@H](N)C(=O)O)c[nH]c2c1; Bip = N[C@@H](Cc1ccc(-c2ccccc2)cc1)C(=O)O; C18 diacid = O=C(O)CCCCCCCCCCCCCCCCC(=O)*; dDip = N[C@@H](C(=O)O)C(c1ccccc1)c1ccccc1; Lys(Me3) = C[N+](C)(C)CCCC[C@H](N)C(=O)O; Dip = N[C@H](C(=O)O)C(c1ccccc1)c1ccccc1; γGlu = O=C(O)[C@H](CCC(=O)[*:2])N[*:1]; Pro(3R-OH) = O=C(O)[C@H]1NCC[C@H]1O; Palmitoyl = CCCCCCCCCCCCCCCC(=O)*; β3hF = N[C@H](CC(=O)O)Cc1ccccc1; NMeK = CN[C@@H](CCCCN)C(=O)O; Pen = CC(C)(S)[C@H](N)C(=O)O; dNMeK = CN[C@H](CCCCN)C(=O)O; Isovaleryl = CC(C)CC(=O)*; hCys = N[C@@H](CCS)C(=O)O; Dap = NC[C@H](N)C(=O)O; AEEA = NCCOCCOCC(=O)O; Ahx = NCCCCCC(=O)O

target: T1, ferroportin (Homo sapiens, UniProt Q9NP59); assay: FPN activity assay: ferroportin-GFP internalization/degradation in HEK293 cells; format: cell-based; design: expressed in transfected cells; conditions: Table 6D; ferroportin-GFP internalization/degradation, at least 18 hours incubation; read-out: FPN IC50
T1 sequence (Q9NP59 1-571): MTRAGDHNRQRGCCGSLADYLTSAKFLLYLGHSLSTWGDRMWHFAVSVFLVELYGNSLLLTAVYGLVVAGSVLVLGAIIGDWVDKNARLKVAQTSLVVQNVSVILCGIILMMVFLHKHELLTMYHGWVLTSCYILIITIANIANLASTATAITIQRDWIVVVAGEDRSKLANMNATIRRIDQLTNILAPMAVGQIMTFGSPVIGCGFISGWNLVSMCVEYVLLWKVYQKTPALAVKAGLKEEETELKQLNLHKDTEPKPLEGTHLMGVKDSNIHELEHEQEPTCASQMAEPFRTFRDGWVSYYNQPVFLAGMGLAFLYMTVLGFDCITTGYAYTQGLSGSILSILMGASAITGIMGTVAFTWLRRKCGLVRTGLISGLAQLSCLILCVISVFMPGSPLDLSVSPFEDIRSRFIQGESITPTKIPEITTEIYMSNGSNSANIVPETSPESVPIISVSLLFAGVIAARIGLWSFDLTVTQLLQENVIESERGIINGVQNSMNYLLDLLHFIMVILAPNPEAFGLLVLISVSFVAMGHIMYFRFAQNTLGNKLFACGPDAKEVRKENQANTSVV
Protocol: Following internalization, the ferroporin protein is degraded.
A retro inverse peptide is a peptide with a reversed sequence in all D amino acids. An example is that Hy-Glu-Thr-His-NH2 becomes Hy-DHis-DThr-DGlu-NH2. The EC50 of these reference compounds for ferroportin internalization/degradation was determined according to the FPN activity assay described above. These peptides served as control standards.

DC50 [µM]	SMILES
0.1 to 0.5	CCCCCCCCCCCCCCCC(=O)NCC[N+](C)(C)CC(=O)NCCCC[C@H](NC(=O)[C@@H]1CSSC[C@H](NC(=O)[C@H](CCC(=O)O)NC(=O)CC(C)C)C(=O)N[C@@H](Cc2c[nH]cn2)C(=O)N[C@@H](C(c2ccccc2)c2ccccc2)C(=O)N1)C(=O)NCCCCC [compound 124]

same assay, conditions: Table 6E; ferroportin-GFP internalization/degradation, at least 18 hours incubation; read-out: FPN IC50

DC50 [µM]	SMILES
0.1 to 0.5	COC(=O)CCC(CCCC(C)C)C(=O)N[C@H](C(=O)N[C@@H](Cc1c[nH]cn1)C(=O)N[C@H](C(=O)N1CCC[C@H]1C(=O)N[C@H]1CSSC[C@@H](C(=O)N[C@H](CCCCN)C(=O)N[C@H](C(=O)N[C@H](CCCCN)C(N)=O)C(c2ccccc2)c2ccccc2)NC1=O)C(c1ccccc1)c1ccccc1)[C@@H](C)O (stereo partly shown) [compound 135] ({Glutaryl(2-isohexyl,5-OMe)}-TH[Dip]PCC[dK][Dip][dK]-NH2; disulfide 5-6)
0.01 to 0.1	CCCCCCCCCCCCCCCC(=O)NCCCCCC(=O)NCCCC[C@@H](C(=O)N[C@H](C(=O)N[C@H](CCCCN)C(N)=O)C(c1ccccc1)c1ccccc1)N(C)C(=O)[C@@H]1CSSC[C@H](NC(=O)[C@@H]2CCCN2C(=O)[C@@H](NC(=O)[C@H](Cc2c[nH]cn2)NC(=O)[C@@H]2[C@H](O)CCN2C(=O)[C@H](CCC(=O)O)NC(=O)CC(C)C)C(c2ccccc2)c2ccccc2)C(=O)N1 [compound 174] (Isovaleryl-E[Pro(3R-OH)]H[Dip]PCC[NMeK]([Ahx-Palmitoyl])[Dip][dK]-NH2; disulfide 6-7)
0.01 to 0.1	CC(C)CC(=O)N[C@@H](CCC(=O)O)C(=O)N[C@H](C(=O)N[C@@H](Cc1c[nH]cn1)C(=O)N[C@H](C(=O)N1CCC[C@H]1C(=O)N[C@H]1CSSC[C@@H](C(=O)N[C@@H](CCCC[N+](C)(C)C)C(=O)N[C@@H](C(N)=O)C(c2ccccc2)c2ccccc2)NC1=O)C(c1ccccc1)c1ccccc1)[C@@H](C)O [compound 140] (Isovaleryl-ETH[Dip]PCC[Lys(Me3)][dDip]-NH2; disulfide 6-7)

same assay, conditions: ferroportin-GFP HEK293 cells, at least 18 hours; read-out: FPN IC50

DC50 [µM]	SMILES
0.01 to 0.1	CCCCCCCCCCCCCCCC(=O)NCCCCCC(=O)NCCCC[C@H](NC(=O)C[C@H](Cc1ccccc1)NC(=O)[C@H]1CSSC[C@@H](NC(=O)CC(C)C)C(=O)N[C@@H]([C@@H](C)O)C(=O)N[C@@H](Cc2c[nH]cn2)C(=O)N[C@@H](C(c2ccccc2)c2ccccc2)C(=O)N2CCC[C@H]2C(=O)N[C@@H](C)C(=O)N[C@@H]([C@@H](C)CC)C(=O)N1)C(=O)N[C@H](CCCCN)C(N)=O [compound 105] (Isovaleryl-[dC]TH[Dip]PAI[dC][β3hF]K([Ahx-Palmitoyl])[dK]-NH2; disulfide 1-8)
0.01 to 0.1	CCCCCCCCCCCCCCCC(=O)NCCCCCC(=O)NCCCC[C@H](NC(=O)C[C@H](Cc1ccccc1)NC(=O)[C@@H](CCCCN)NC(=O)[C@@H](NC(=O)[C@@H]1CSSC[C@H](NC(=O)[C@H](Cc2c[nH]cn2)NC(=O)[C@@H](NC(=O)[C@H](CCC(=O)O)NC(=O)CC(C)C)[C@@H](C)O)C(=O)N2CCC[C@H]2C(=O)N1)[C@@H](C)CC)C(=O)N[C@H](CCCCN)C(N)=O [Compd 3] (Isovaleryl-ETHCPCI[dK][β3hF]K([Ahx-Palmitoyl])[dK]-NH2; disulfide 4-6)
0.1 to 0.5	CC[C@H](C)[C@H](NC(=O)[C@@H]1CSSC[C@H](NC(=O)[C@H](Cc2c[nH]cn2)NC(=O)[C@@H](NC(=O)[C@H](CCC(=O)O)NC(=O)CC(C)C)[C@@H](C)O)C(=O)N2CCC[C@H]2C(=O)N1)C(=O)N[C@@H](CCCCNC(=O)COCCOCCNC(=O)COCCOCCNC(=O)CC[C@H](NC(=O)CCCCCCCCCCCCCCCCC(=O)O)C(=O)O)C(=O)N[C@H](CC(=O)N[C@H](CCCCN)C(N)=O)Cc1ccccc1 [Compd 29] (Isovaleryl-ETHCPCIK([AEEA-AEEA-γGlu-C18 diacid])[β3hF][dK]-NH2; disulfide 4-6)
0.01 to 0.1	CCCCCCCCCCCCCCCC(=O)NCCCCCC(=O)NCCCC[C@H](NC(=O)C[C@H](Cc1ccccc1)NC(=O)[C@H]1NC(=O)[C@H]([C@@H](C)CC)NC(=O)[C@H](C)NC(=O)[C@@H]2CCCN2C(=O)[C@H](C(c2ccccc2)c2ccccc2)NC(=O)[C@H](Cc2c[nH]cn2)NC(=O)[C@H]([C@@H](C)O)NC(=O)[C@@H](NC(=O)CC(C)C)CCSSC1(C)C)C(=O)N[C@H](CCCCN)C(N)=O [compound 109] (Isovaleryl-[hCys]TH[Dip]PAI[Pen][β3hF]K([Ahx-Palmitoyl])[dK]-NH2; disulfide 1-8)
0.1 to 0.5	CCCCCCCCCCCCCCCC(=O)NCCCCCC(=O)NCCCC[C@H](NC(=O)[C@@H](NC(=O)[C@@H]1CCSSCC[C@H](NC(C)=O)C(=O)N[C@@H](CCC(=O)O)C(=O)N[C@@H]([C@@H](C)O)C(=O)N[C@@H](Cc2c[nH]cn2)C(=O)N[C@@H](C(c2ccccc2)c2ccccc2)C(=O)N2CCC[C@H]2C(=O)N1)[C@@H](C)CC)C(=O)N[C@H](CC(N)=O)Cc1ccccc1 [Compd 14] (Ac-[hCys]ETH[Dip]P[hCys]IK([Ahx-Palmitoyl])[β3hF]-NH2; disulfide 1-7)
0.1 to 0.5	CCCCCCCCCCCCCCCC(=O)NCCCCCC(=O)NCCCC[C@H](NC(=O)[C@@H](NC(=O)[C@@H]1CCSSC[C@H](N)C(=O)N[C@@H](C(C)C)C(=O)N[C@@H](CCC(=O)O)C(=O)N[C@@H]([C@@H](C)O)C(=O)N[C@@H](Cc2c[nH]cn2)C(=O)N[C@@H](C(c2ccccc2)c2ccccc2)C(=O)N2CCC[C@H]2C(=O)N1)[C@@H](C)CC)C(=O)N[C@H](CC(N)=O)Cc1ccccc1 [Compd 17] (H-CVETH[Dip]P[hCys]IK([Ahx-Palmitoyl])[β3hF]-NH2; disulfide 1-8)
0.1 to 0.5	CC[C@H](C)[C@H](NC(=O)[C@@H]1CSSC[C@H](NC(=O)[C@H](Cc2c[nH]cn2)NC(=O)[C@@H](NC(=O)[C@H](CCC(=O)O)NC(=O)CC(C)C)[C@@H](C)O)C(=O)N2CCC[C@H]2C(=O)N1)C(=O)N[C@@H](CCCCNC(=O)COCCOCCNC(=O)COCCOCCNC(=O)CCCCCNC(=O)CCCCCCCCCCCCCCCCC(=O)O)C(=O)N[C@H](CC(=O)N[C@H](CCCCN)C(N)=O)Cc1ccccc1 [Compd 20] (Isovaleryl-ETHCPCIK([AEEA-AEEA-Ahx-C18 diacid])[β3hF][dK]-NH2; disulfide 4-6)
0.001 to 0.01	CCCCCCCCCCCCCCCC(=O)NCCCCCC(=O)NCCCC[C@H](NC(=O)C[C@H](Cc1ccccc1)NC(=O)[C@@H]1CSSCC[C@H](NC(=O)CC(C)C)C(=O)N[C@@H]([C@@H](C)O)C(=O)N[C@@H](Cc2cnc[nH]2)C(=O)N[C@@H](C(c2ccccc2)c2ccccc2)C(=O)N2CCC[C@H]2C(=O)N[C@@H](C)C(=O)N[C@@H]([C@@H](C)CC)C(=O)N1)C(=O)N[C@H](CCCCN)C(N)=O [compound 110] (Isovaleryl-[hCys]TH[Dip]PAIC[β3hF]K([Ahx-Palmitoyl])[dK]-NH2; disulfide 1-8)

same assay, conditions: ferroportin-GFP internalization/degradation, HEK293 cells; Table 6E; read-out: FPN IC50

DC50 [µM]	SMILES
> 0.5	CC(C)CC(=O)N[C@@H](CCC(=O)O)C(=O)N[C@H](C(=O)N[C@@H](Cc1ccc(-c2ccccc2)cc1)C(=O)N[C@H](C(=O)N1CCC[C@H]1C(=O)N[C@H]1CSSC[C@@H](C(=O)N(C)[C@@H](CCCCNC(=O)COCCOCCNC(=O)COCCOCCNC(=O)[C@H](CN)NC(=O)CCCCCCCCCCCCCCCCC(=O)O)C(=O)N[C@H](CC(=O)N[C@H](CCCCN)C(N)=O)Cc2ccccc2)NC1=O)C(c1ccccc1)c1ccccc1)[C@@H](C)O [compound 297] (Isovaleryl-ET[Bip][Dip]PCC[NMeK]([AEEA-AEEA-Dap-C18 diacid])[β3hF][dK]-NH2; disulfide 6-7)
0.01 to 0.1	CC(C)CC(=O)N[C@@H](CCC(=O)O)C(=O)N[C@H](C(=O)N[C@@H](Cc1c[nH]cn1)C(=O)N[C@H](C(=O)N1CCC[C@H]1C(=O)N[C@H]1CSSC[C@@H](C(=O)N(C)[C@@H](CCCCNC(=O)COCCOCCNC(=O)COCCOCCNC(=O)[C@H](CN)NC(=O)CCCCCCCCCCCCCCCCC(=O)O)C(=O)N[C@H](CC(=O)N(C)[C@H](CCCCN)C(N)=O)Cc2ccccc2)NC1=O)C(c1ccccc1)c1ccccc1)[C@@H](C)O [compound 276] (Isovaleryl-ETH[Dip]PCC[NMeK]([AEEA-AEEA-Dap-C18 diacid])[β3hF][dNMeK]-NH2; disulfide 6-7)
0.01 to 0.1	CC(C)CC(=O)N[C@@H](CCC(=O)O)C(=O)N[C@H](C(=O)N[C@@H](Cc1c[nH]cn1)C(=O)N[C@H](C(=O)N1CCC[C@H]1C(=O)N[C@@H]1C(=O)N[C@H](C(=O)N(C)[C@@H](CCCCNC(=O)COCCOCCNC(=O)COCCOCCNC(=O)[C@H](CN)NC(=O)CCCCCCCCCCCCCCCCC(=O)O)C(=O)N[C@H](CC(=O)N[C@H](CCCCN)C(N)=O)Cc2ccccc2)CSSC1(C)C)C(c1ccccc1)c1ccccc1)[C@@H](C)O [compound 271] (Isovaleryl-ETH[Dip]P[Pen]C[NMeK]([AEEA-AEEA-Dap-C18 diacid])[β3hF][dK]-NH2; disulfide 6-7)
> 0.5	COc1ccc2c(C[C@H](NC(=O)[C@@H](NC(=O)[C@H](CCC(=O)O)NC(=O)CC(C)C)[C@@H](C)O)C(=O)N[C@H](C(=O)N3CCC[C@H]3C(=O)N[C@H]3CSSC[C@@H](C(=O)N(C)[C@@H](CCCCNC(=O)COCCOCCNC(=O)COCCOCCNC(=O)[C@H](CN)NC(=O)CCCCCCCCCCCCCCCCC(=O)O)C(=O)N[C@H](CC(=O)N[C@H](CCCCN)C(N)=O)Cc4ccccc4)NC3=O)C(c3ccccc3)c3ccccc3)c[nH]c2c1 [compound 287] (Isovaleryl-ET[Trp(6-OMe)][Dip]PCC[NMeK]([AEEA-AEEA-Dap-C18 diacid])[β3hF][dK]-NH2; disulfide 6-7)
